Test results published in US20100136603A1, “KIT AND A METHOD FOR EVALUATING TOXICITY USING SPORE RELEASE BY THE GREEN ALGA ULVA” (priority 2008, published 2010).

Test system: Ulva pertusa Kjellman
Conditions: for order of toxicity of the heavy metal, estimated by EC50: rank order among heavy metals, spore release, 96 hours
Protocol: The present inventors collected Ulva pertusa Kjellman from the coast of Ahnin in Korea, and the leaf (thallus) of Ulva pertusa Kjellman was cut to have a coin shape having a diameter of 6 mm, and dispensed in the plastic cell plate containing 10 ml artificial sea water (35%) medium (Coralife, Energy Savers, California. USA) supplemented with 1 mM KNO3 and 0.1 mM K2HPO4.
The toxicity test was then carried out by adding toxic materials (toxicants) into the medium, keeping the other environmental conditions constant. The used toxic materials and the target concentration are described in the following Table 1.
After cultivated for 96 hours, the thallus having the coin shape was collected, and the area with white color was measured by using the microscope (Axioscope) having a magnification of 400× and the image analysis system (MV200, Samsung, Korea).
The mother liquid of TBTO was prepared in acetone that was mixed with the sea water (0.01%); here an acetone control group in the same concentration was also tested. The toxicities of volatile organic compounds (VOC) [acetone, ethanol, formalin and methanol) were tested by adding aqueous volatile organic compounds (VOC) to the medium to achieve the target concentration.

Row | SMILES | order of toxicity of the heavy metal, estimated by EC50 | order of toxicity of the volatile organic compound (VOC) (in vivo) | half effective concentration (EC50) (in vivo)
1 | [Cd] [Cd, cadmium] | Cu>Cd>Zn>Pb | – | –
2 | [Cu] [Cu, copper] | Cu>Cd>Zn>Pb | – | –
3 | [Zn] [Zn, zinc] | Cu>Cd>Zn>Pb | – | –
4 | CC(C)=O [acetone] | – | formaline>methanol>ethanol>acetone | –
5 | CCO [ethanol] | – | formaline>methanol>ethanol>acetone | –
6 | C=O [formaline] | – | formaline>methanol>ethanol>acetone | 0.788 μl/L
7 | CO [methanol] | – | formaline>methanol>ethanol>acetone | –
